Patent US4471113A, “Prodrugs based on phospholipid-nucleoside conjugates” (priority 1982, dated 1984)
Like-named read-outs stand apart in the source and are kept apart here.

Legend:
deaminase enzymes = conditions: cited from earlier work; for protection of parent drug from catabolic degradation: lipophilic fatty acid esters; for catabolism via deaminase enzymes: to ineffective metabolites
[1] = in vivo studies; cited from earlier work
[2] = in vivo; cited from earlier work
[3] = Solubilization of suspensions by sonication; format: physicochemical; conditions: aqueous suspension at room temperature
From the text: In the study of biological activity of the compositions of Examples 1f and II-VII, it was first necessary to prepare solutions at room temperature. Suspensions of the compounds of Examples 1f and II-VII were all subjected to known sonication techniques in order to aid solubilization. […] Finally, the best means of solubilization was achieved by mixing the sample with araCDP-L-dipalmitin prior to sonication. In this fashion, mixtures having ratios (by weight) of the mono- to diphosphate linked derivatives from 1:2 through to 3:1 were made up and such mixtures were used for the in vitro inhibition studies.

[4] = system: mouse myeloma MPC-11 (subclone 66.2) cells; experiment: In vitro antiproliferative activity against mouse myeloma MPC-11 (subclone 66.2) cell line; format: cell-based
[5] = samples made up in 0.9% saline/0.1 mM Tris, pH 7.1, read-out: ED50 (the source's name)
[6] = solvent not stated, read-out: dose required for 50% inhibition of growth of cells in tissue culture (ED50)
[7] = samples made up in H2O, read-out: ED50 (the source's name)

CCCCCCCCCCCCCCCC(=O)OC[C@H]1O[C@@H](n2ccc(N)nc2=O)[C@@H](O)[C@@H]1O [5'-O-palmitoyl-araC]
protection of parent drug from catabolic degradation (deaminase enzymes): protected the parent drug from catabolic degradation | therapeutic advantage in vivo [1]: no therapeutic advantages

Nc1ncnc2c1ncn2[C@@H]1O[C@H](CO)[C@@H](O)[C@@H]1O [araA, 9-β-D-arabinofuranosyladenine]
catabolism via deaminase enzymes (deaminase enzymes): rapid catabolism

O=c1ccn([C@@H]2O[C@H](CO)[C@@H](O)[C@@H]2O)c(=O)[nH]1 [araU, 1-β-D-arabinofuranosyluracial]
appearance of metabolite in urine [2]: appears rapidly in human urine

CCCCCCCCCCCCCCCC(=O)OC[C@H](COP(=O)(O)OC[C@H]1O[C@@H](n2ccc(N)nc2=O)[C@@H](O)[C@@H]1O)OC(=O)CCCCCCCCCCCCCCC [araCMP-L-dipalmitin]
solubilization by sonication [3]: resisted solubilization even when samples were mixed with several types of detergent prior to sonication

CCCCCCCCCCCCCCCCCC(=O)OC[C@H](COP(=O)(O)OP(=O)(O)OC[C@H]1O[C@@H](n2ccc(N)nc2=O)[C@@H](O)[C@@H]1O)OC(=O)CCCCCCCCCCCCCCCCC [araCDP-L-distearin, 1-β-D-Arabinofuranosylcytosine-5'-diphosphate-L-1,2-distearin]
IC50 [4, 5]: 168 µM | IC50 [4, 6]: 195 µM | solubilization by sonication [3]: remained slightly opalescent

CCCCCCCC/C=C\CCCCCCCC(=O)OC[C@H](COP(=O)(O)OP(=O)(O)OC[C@H]1O[C@@H](n2ccc(N)nc2=O)[C@@H](O)[C@@H]1O)OC(=O)CCCCCCC/C=C\CCCCCCCC [araCDP-L-diolein, 1-β-D-Arabinofuranosylcytosine-5'-diphosphate-L-1,2-diolein]
IC50 [4, 5]: 43.9 µM | IC50 [4, 6]: 62 µM

CCCCCCCCCCCCCCCC(=O)OC[C@H](COP(=O)(O)OP(=O)(O)OC[C@H]1O[C@@H](n2ccc(N)nc2=O)[C@@H](O)[C@@H]1O)OC(=O)CCCCCCCCCCCCCCC [araCDP-L-dipalmitin]
IC50 [4, 5]: 42.1 µM | IC50 [4, 6]: 65 µM

CCCCCCCCCCCCCC(=O)OC[C@H](COP(=O)(O)OP(=O)(O)OC[C@H]1O[C@@H](n2ccc(N)nc2=O)[C@@H](O)[C@@H]1O)OC(=O)CCCCCCCCCCCCC [araCDP-L-dimyristin]
IC50 [4, 5]: 13.1 µM | IC50 [4, 6]: 15 µM

CCCCC(=O)OC[C@H]1O[C@@H](n2cnc3c(N)ncnc32)[C@@H](O)[C@@H]1O [5'-O-valeryl-araA]
protection of parent drug from catabolic degradation (deaminase enzymes): protected the parent drug from catabolic degradation

Nc1ccn([C@@H]2O[C@H](CO)[C@@H](O)[C@@H]2O)c(=O)n1 [araC, 1-β-D-arabinofuranosylcytosine]
IC50 [4, 5]: 0.85 µM | IC50 [4, 7]: 0.99 µM | catabolism via deaminase enzymes (deaminase enzymes): rapid catabolism

Nc1ccn([C@@H]2O[C@H](COC(=O)C34CC5CC(CC(C5)C3)C4)[C@@H](O)[C@@H]2O)c(=O)n1 [5'-O-adamantoyl-araC]
protection of parent drug from catabolic degradation (deaminase enzymes): protected the parent drug from catabolic degradation

CCCCCCCCCCCCCCCC(=O)OC[C@H](COP(=O)(O)OP(=O)(O)OC[C@H]1O[C@@H](n2ccc3c(N)ncnc32)[C@H](O)[C@@H]1O)OC(=O)CCCCCCCCCCCCCCC [TubercidinDP--L-dipalmitin, Tubercidin-5'-diphosphate-L-1,2-dipalmitin]
IC50 [4, 7]: 5 µM
